Test results published in US9169199B2, “Cycloalkyl guanidine F1F0-ATPase inhibitors and therapeutic uses thereof” (Lycera Corporation, priority 2010, dated 2015).

Columns and labels:
Ramos cells = experiment: Cytotoxicity in Ramos cells; assay type: cell-based; conditions: Homo sapiens, read-out: Ramos cell EC50
Experimental: (§1) Compounds in Example 4 above were tested for activity against F1F0-ATPase by measuring ATP synthesis. In addition, the compounds were assessed for cytotoxicity in Ramos cells. Inhibition of ATP synthesis by the F1F0-ATPase and cytotoxicity in Ramos cells were measured according to the procedures described in K. M. Johnson et al. Chemistry & Biology 2005, 12, 485-496.

F1F0-ATPase = molecular target: T1, F1F0-ATPase (Bos taurus, UniProt P13621); experiment: Inhibition of ATP synthesis by the F1F0-ATPase; assay type: biochemical
T1 construct: from tissue
Experimental: as §1

Structure (SMILES) | EC50 (Ramos cells) [µM] | IC50 (F1F0-ATPase) [µM]
O=C(/N=C(/NCc1ccccc1Cl)N[C@H]1CC[C@H](Nc2ncccn2)CC1)c1ccc(F)c(F)c1 [Compound 90] | < 10 | < 10
CCOC(=O)N[C@H]1CC[C@H](N/C(=N\C(=O)c2ccc(F)c(F)c2)NCc2ccc(Cl)cc2)CC1 [Compound 49] | < 10 | < 10
CC(C)(C)OC(=O)NC1CCC(N/C(=N\C(=O)c2ccc(F)c(F)c2)Nc2cc(F)cc(Cl)c2)CC1 (centres unmarked) [Compound 167] | < 10 | < 10
O=C(/N=C(/Nc1cc(F)cc(Cl)c1)N[C@H]1CC[C@H](O)CC1)c1ccc(Cl)cc1 [Compound 28] | < 10 | > 10
CCOC(=O)NC1CCC(N/C(=N\C(=O)c2ccc(F)c(C)c2)Nc2cc(F)cc(Cl)c2)CC1 (centres unmarked) [Compound 161] | < 10 | < 10
O=C(/N=C(/Nc1cccc(Cl)c1)N[C@H]1CC[C@H](Nc2ccccn2)CC1)c1ccc(F)c(F)c1 [Compound 88] | < 10 | < 10
O=C(/N=C(/Nc1cc(F)cc(Cl)c1)N[C@H]1CC[C@H](Nc2ncccn2)CC1)c1ccc(Cl)cc1 [Compound 118] | < 10 | < 10
O=C(/N=C(/NCc1ccc(Cl)c(F)c1)N[C@H]1CC[C@H](O)CC1)c1ccc(F)c(F)c1 [Compound 45] | < 10 | < 10
O=C(/N=C(/NCc1ccc(Cl)c(F)c1)N[C@H]1CC[C@H](Nc2ncccn2)CC1)c1ccc(F)c(F)c1 [Compound 75] | < 10 | < 10
O=C(/N=C(/Nc1cc(F)cc(Cl)c1)N[C@H]1CC[C@H](Nc2ncccn2)CC1)c1ccc(C(F)(F)F)cc1 [Compound 115] | < 10 | < 10
CCOC(=O)N[C@H]1CC[C@H](N/C(=N\C(=O)c2ccc(F)c(F)c2)NC2CCC(F)(F)CC2)CC1 [Compound 95] | > 10 | < 10
CCOC(=O)N[C@H]1CC[C@H](N/C(=N\C(=O)c2ccc(F)c(F)c2)NCc2ccc(F)cc2Cl)CC1 [Compound 60] | < 10 | < 10
O=C(/N=C(/Nc1cc(F)cc(Cl)c1)N[C@H]1CC[C@@H](C(=O)O)CC1)c1ccc(F)c(F)c1 [Compound 99] | > 10 | > 10
CC1(N/C(=N/C(=O)c2ccc(C(F)(F)F)cc2)N[C@H]2CC[C@H](Nc3ncccn3)CC2)CCCC1 [Compound 121] | < 10 | < 10
CCOC(=O)N[C@H]1CC[C@H](N/C(=N\C(=O)c2ccc(F)c(F)c2)NCc2cc(F)cc(F)c2)CC1 [Compound 59] | < 10 | < 10
CCOC(=O)N[C@H]1CC[C@H](N/C(=N\C(=O)c2ccc(F)c(F)c2)NC2CCCCC2)CC1 [Compound 76] | > 10 | < 10
O=C(/N=C(/Nc1cc(F)cc(Cl)c1)NC1CCC(NC(=O)c2ccccn2)CC1)c1ccc(F)c(F)c1 (centres unmarked) [Compound 171] | < 10 | < 10
O=C(/N=C(/Nc1cc(F)cc(Cl)c1)NC1CCC(NC(=O)c2cccnc2)CC1)c1ccc(F)c(F)c1 (centres unmarked) [Compound 169] | < 10 | < 10
CCOC(=O)N[C@H]1CC[C@H](N/C(=N\C(=O)c2ccc(F)c(F)c2)NCc2ccccc2Cl)CC1 [Compound 47] | < 10 | < 10
CCOC(=O)N[C@H]1CC[C@H](N/C(=N\C(=O)c2ccc(F)c(F)c2)NCc2ccccc2F)CC1 [Compound 53] | < 10 | < 10

Structure (SMILES) | EC50 (Ramos cells) [µM] | IC50 (F1F0-ATPase) [µM]
O=C(/N=C(/Nc1cc(F)cc(Cl)c1)N[C@H]1CCCC[C@H]1O)c1ccc(F)c(F)c1 [Compound 128] | < 10 | < 10
O=C(/N=C(/Nc1cccc(C(F)(F)F)c1)N[C@H]1CC[C@H](O)CC1)c1ccc(Cl)cc1 [Compound 29] | < 10 | < 10
O=C(/N=C(/NCc1ccc(F)cc1F)N[C@H]1CC[C@H](O)CC1)c1ccc(F)c(F)c1 [Compound 41] | > 10 | > 10
CCOC(=O)N[C@H]1CC[C@H](N/C(=N\C(=O)c2ccc(F)c(F)c2)NCc2cccc(F)c2)CC1 [Compound 54] | < 10 | < 10
O=C(/N=C(/Nc1ccccc1C1CC1)N[C@H]1CC[C@H](Nc2ncccn2)CC1)c1ccc(F)c(F)c1 [Compound 67] | > 10 | < 10
CCOC(=O)N[C@H]1CC[C@H](N/C(=N\C(=O)c2ccc(F)c(F)c2)NCc2ccc(F)c(Cl)c2)CC1 [Compound 61] | < 10 | < 10
CC1(N/C(=N/C(=O)c2ccc(Cl)cc2)N[C@H]2CC[C@H](Nc3ncccn3)CC2)CCCC1 [Compound 122] | < 10 | < 10
CCOC(=O)N[C@@H]1CCC[C@@H](N/C(=N\C(=O)c2ccc(F)c(F)c2)Nc2cc(F)cc(Cl)c2)C1 [Compound 126] | < 10 | < 10
COC(=O)N[C@H]1CC[C@H](N/C(=N/C(=O)c2ccc(F)c(F)c2)Nc2cc(F)cc(Cl)c2)CC1 [Compound 11] | < 10 | < 10
O=C(/N=C(/NCc1cc(F)cc(F)c1)N[C@H]1CC[C@H](O)CC1)c1ccc(F)c(F)c1 [Compound 42] | > 10 | > 10
CCOC(=O)N[C@H]1CC[C@H](N/C(=N\C(=O)c2ccc(F)c(F)c2)NCc2cccc(F)c2F)CC1 [Compound 57] | < 10 | < 10
COC(=O)NC1CCC(N/C(=N\C(=O)c2ccc(Cl)cc2)Nc2cc(F)cc(Cl)c2)CC1 (centres unmarked) [Compound 166] | < 10 | < 10
O=C(/N=C(/NCc1ccccc1F)N[C@H]1CC[C@H](O)CC1)c1ccc(F)c(F)c1 [Compound 35] | > 10 | > 10
N[C@H]1CC[C@H](N/C(=N\C(=O)c2ccc(F)c(F)c2)Nc2cccc(Cl)c2)CC1 [Compound 79] | < 10 | > 10
CCOC(=O)NC1CCC(N/C(=N\C(=O)c2cccc(C)c2)Nc2cc(F)cc(Cl)c2)CC1 (centres unmarked) [Compound 159] | < 10 | < 10
O=C(/N=C(/Nc1ccccc1C1CC1)N[C@H]1CC[C@H](O)CC1)c1ccc(Cl)cc1 [Compound 22] | > 10 | > 10
O=C(/N=C(\NCc1ccccc1C(F)(F)F)N[C@H]1CC[C@H](O)CC1)c1ccc(F)c(F)c1 [Compound 16] | < 10 | > 10
CCOC(=O)NC1CCC(N/C(=N\C(=O)c2ccc(C)cc2)Nc2cc(F)cc(Cl)c2)CC1 (centres unmarked) [Compound 158] | < 10 | < 10
COC(=O)NC1CCC(N/C(=N\C(=O)c2ccccc2)Nc2cc(F)cc(Cl)c2)CC1 (centres unmarked) [Compound 150] | > 10 | < 10
CCOC(=O)N[C@H]1CC[C@H](N/C(=N\C(=O)c2ccc(F)c(F)c2)NCc2cccc(C(F)(F)F)c2)CC1 [Compound 51] | < 10 | < 10

Structure (SMILES) | EC50 (Ramos cells) [µM] | IC50 (F1F0-ATPase) [µM]
CC(C)(C)OC(=O)N[C@H]1CC[C@H](N/C(=N\C(=O)c2ccc(F)c(F)c2)Nc2cccc(Cl)c2)CC1 [Compound 78] | < 10 | < 10
O=C(/N=C(/NCc1ccc(F)c(F)c1)N[C@H]1CC[C@H](O)CC1)c1ccc(F)c(F)c1 [Compound 39] | < 10 | > 10
O=C(/N=C(/Nc1cccc(Cl)c1F)N[C@H]1CC[C@H](O)CC1)c1ccc(C(F)(F)F)cc1 [Compound 69] | < 10 | < 10
O=C(/N=C(/Nc1cc(F)cc(Cl)c1)N[C@H]1CCCC[C@H]1O)c1ccc(C(F)(F)F)cc1 [Compound 123] | < 10 | < 10
CCOC(=O)N[C@H]1CC[C@H](N/C(=N/C(=O)c2ccc(F)c(F)c2)Nc2cccc(Cl)c2)CC1 [Compound 19] | < 10 | < 10
CCOC(=O)N[C@H]1CC[C@H](N/C(=N\C(=O)c2ccc(C(F)(F)F)cc2)NC(C)(C)C)CC1 [Compound 111] | > 10 | < 10
O=C(/N=C(/Nc1cccc(Cl)c1)N[C@H]1CC[C@H](NC(=O)c2cnccn2)CC1)c1ccc(F)c(F)c1 [Compound 131] | < 10 | < 10
CCOC(=O)N[C@H]1CC[C@H](N/C(=N\C(=O)c2ccc(F)c(F)c2)NCc2ccc(Cl)c(F)c2)CC1 [Compound 62] | < 10 | < 10
CCOC(=O)NC1CCC(N/C(=N\C(=O)c2ccc(F)c(S(C)(=O)=O)c2)Nc2cc(F)cc(Cl)c2)CC1 (centres unmarked) [Compound 146] | > 10 | > 10
COc1cccc(C(=O)/N=C(/Nc2cc(F)cc(Cl)c2)NC2CCC(NC(=O)c3ccccc3)CC2)c1 (centres unmarked) [Compound 157] | < 10 | < 10
COC(=O)NC1CCC(N/C(=N\C(=O)c2ccc(C)cc2)Nc2cc(F)cc(Cl)c2)CC1 (centres unmarked) [Compound 147] | < 10 | < 10
CCOC(=O)N[C@H]1CC[C@H](N/C(=N\C(=O)c2ccc(F)c(F)c2)NCc2ccc(Cl)cc2F)CC1 [Compound 63] | < 10 | < 10
CCOC(=O)N[C@H]1CC[C@H](N/C(=N\C(=O)c2ccc(F)c(F)c2)NC2CCCC2)CC1 [Compound 109] | > 10 | > 10
CCOC(=O)N[C@H]1CC[C@H](N/C(=N\C(=O)c2ccc(F)c(F)c2)Nc2cccc(Cl)c2F)CC1 [Compound 82] | < 10 | < 10
O=C(/N=C(/NCc1ccccc1C(F)(F)F)N[C@H]1CC[C@H](O)CC1)c1ccc(F)c(F)c1 [Compound 32] | > 10 | –
O=C(/N=C(/Nc1cc(F)cc(Cl)c1)NC1CCC(O)CC1)c1cccc(Cl)c1 (centres unmarked) [Compound 26] | < 10 | –
O=C(/N=C(/Nc1cc(F)cc(Cl)c1)N[C@H]1CC[C@H](O)CC1)c1cccc(Cl)c1 [Compound 26] | – | < 10
CCOC(=O)N[C@H]1CC[C@H](N/C(=N/C(=O)c2ccc(F)c(F)c2)NC2CCCC2)CC1 [Compound 70] | > 10 | –
O=C(/N=C(/Nc1cc(F)cc(Cl)c1)N[C@H]1CCCC[C@@H]1O)c1ccc(C(F)(F)F)cc1 [Compound 127] | < 10 | –
